Data published in patent US8809384B2, “Azaspirodecanone compounds” (Hoffmann-La Roche Inc., priority 2011, dated 2014).

Target: T1, human HSL (Homo sapiens, UniProt Q05469)
T1 construct: generate a full length human HSL ORF with a 3′-His6 tag; made in house; host or cells: High 5 insect cells (baculovirus, pFast-BAC)
T1 sequence (Q05469 1-1076): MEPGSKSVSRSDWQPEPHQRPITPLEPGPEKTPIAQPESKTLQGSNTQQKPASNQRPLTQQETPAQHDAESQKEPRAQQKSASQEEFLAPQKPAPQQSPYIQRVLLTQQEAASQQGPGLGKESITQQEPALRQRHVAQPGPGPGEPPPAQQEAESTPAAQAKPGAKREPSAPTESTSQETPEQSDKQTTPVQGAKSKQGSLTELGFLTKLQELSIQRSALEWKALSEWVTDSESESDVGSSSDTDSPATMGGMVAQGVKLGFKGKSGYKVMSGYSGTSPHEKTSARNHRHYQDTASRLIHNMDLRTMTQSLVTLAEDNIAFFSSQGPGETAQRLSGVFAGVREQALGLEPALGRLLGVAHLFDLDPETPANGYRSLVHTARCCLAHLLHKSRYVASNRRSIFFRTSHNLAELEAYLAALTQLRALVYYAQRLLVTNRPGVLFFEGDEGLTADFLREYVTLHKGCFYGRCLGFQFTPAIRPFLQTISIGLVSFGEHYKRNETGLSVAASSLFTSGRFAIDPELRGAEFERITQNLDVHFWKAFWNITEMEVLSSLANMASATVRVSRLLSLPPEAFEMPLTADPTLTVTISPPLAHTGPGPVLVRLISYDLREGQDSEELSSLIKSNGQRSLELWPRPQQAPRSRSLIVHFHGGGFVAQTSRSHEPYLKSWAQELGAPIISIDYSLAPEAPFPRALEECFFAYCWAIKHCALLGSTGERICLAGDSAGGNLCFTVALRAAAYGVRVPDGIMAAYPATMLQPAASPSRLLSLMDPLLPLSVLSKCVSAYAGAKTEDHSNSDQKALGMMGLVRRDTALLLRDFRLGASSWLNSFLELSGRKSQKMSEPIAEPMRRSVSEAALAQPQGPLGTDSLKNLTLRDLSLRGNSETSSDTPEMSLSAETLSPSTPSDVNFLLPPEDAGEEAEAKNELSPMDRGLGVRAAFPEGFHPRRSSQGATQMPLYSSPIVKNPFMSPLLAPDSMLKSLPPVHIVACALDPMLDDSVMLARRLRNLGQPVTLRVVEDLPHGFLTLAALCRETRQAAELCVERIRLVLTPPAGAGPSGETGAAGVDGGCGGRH
Experiment: Human Hormone-Sensitive Lipase (HSL) enzyme inhibition assay (colorimetric, DMPT substrate)
Type: biochemical
Conditions: human full length HSL-His6, 2,3-dimercapto-1-propanol tributyrate substrate, 37° C., 20 minutes; read-out: HSL hum IC50
Experimental: Production of Human full length Hormone Sensitive Lipase-His^6: • 1) Cloning: cDNA was prepared from commercial human brain polyA+ RNA and used as a template in overlapping PCR to generate a full length human HSL ORF with a 3′-His6 tag. This full length insert was cloned into the pFast-BAC vector and the DNA-sequence of several single clones was verified. DNA from a correct full length clone with the 3′His6 tag was used to transform the E. coli strain DH10BAC. Resulting bacmid DNA was used to generate a titered baculovirus stock for protein generation. The sequence of the encoded HSL conforms to Swissprot entry Q05469, with the additional C-terminal His6-tag. • 2) Protein purification: Culture: 5.5 L, High 5 cells expressing human full length HSL-His^6, 48 hr., containing 25 μM E-64. Cell count: […], 90% viable. Cells were thawed. On ice, cells were suspended in Base Buffer containing 10% glycerol, 25 mM Tris-Cl, 300 mM NaCl, 10 mM imidazole, 10 mM 2-mercaptoethanol, 2 μg pepstatin/ml, 2 μg leupeptin/ml, 2 μg antipain/ml, pH 8.0 at 4° C. in a final volume of 475 ml with 3.75×10^7 cells/ml. […] was done at 3×30 sec., Lubrol PX was added to 0.2% final concentration followed by stirring for 15 min at 4° C. and centrifugation at 25 k×g, 60 min, 4° C. Soluble proteins were mixed with 60 ml of pre-washed and equilibrated Ni-NTA Agarose (Qiagen 30210) followed by tumbling end-over-end, 45 min., 4° C., centrifugation 1000 rpm 5 min and letting resin settle […]. Supernatant was removed, the resin washed in the centrifuge vessel using 5 volumes of Base Buffer containing 0.2% Lubrol PX. Centrifugation was done again, then the supernatant discarded. The resin was poured onto a 0.8 μm membrane in a disposable filter unit (Nalge 450-0080), and washed with 5 volumes of Base Buffer containing 0.2% Lubrol PX. It was then washed with 30 volumes of Base Buffer containing 60 mM imidazole pH 7.5 at 4° C. The protein was eluated with 5 volumes of 25 mM Tris-Cl, 300 mM NaCl, 200 mM imidazole, 10 mM 2-mercaptoethanol, pH 7.5 at 4° C. by tumbling resin with buffer end-over-end, 30 min., 4° C. The resin was captured on a 0.2 μm membrane disposable filter unit (Millipore SCGP U02 RE) and the eluate collected in the reservoir. The eluate was concentrated using a 30 k MWCO centrifugal filter device (Sartorius Vivascience Vivacell 100, VC1022), to 20 ml. It was then dialyzed overnight at 4° C., two times against 2 L of 10% glycerol, 25 mM Tris-Cl, 300 mM NaCl, 0.2 mM EDTA, 0.2 mM DTT, pH 7.5 at 4° C. The protein was filtered using a 0.22 μm disposable filter unit (Millipore SCGP00525). The protein concentration was calculated from absorbance at 280 nm, using 280=0.67 cm^−1 mg-1. Yield was 235 mg, total. The protein was stored at −80° C.
Human Hormone-Sensitive Lipase (HSL) Enzyme Inhibition Assay: • HSL enzyme activity was measured by a colorimetric assay using 2,3-dimercapto-1-propanol tributyrate (Aldrich, St. Louis, Mo.) as a substrate. Typically, 1.5 mM 2,3-dimercapto-1-propanol tributyrate (DMPT) in 100 mM MOPS, pH 7.2, 0.2 mg/ml fatty acid-free BSA was prepared by sonication at 4° C. to homogenous suspension. Test compounds (2 mM stock in DMSO) were diluted 3 fold in series in DMSO. Compound solutions were diluted 24 fold in 1.5 mM DMPT containing solution and 18 μl per well was added to 384-well microplates (Corning Costar). Twelve microliters per well of human HSL (15 μg/ml) was added and the reaction mixture was incubated at 37° C. for 20 minutes. Six microliters of 12 mM dithio-bis-(2-nitrobenzoic acid) (DTNB) in DMSO plus 1.2% SDS and 0.6% Triton X-100 were added and the mixture was incubated at room temperature for 15 minutes. Product production was monitored by reading absorbance at 405 nm on an Envision Reader (PerkinElmer Life and Analytical Sciences, Shelton, Conn.).

Going from CC(C)Oc1ccc(N2CC[C@]3(CC[C@@](O)(CN4CC[C@@H](O)C4=O)CC3)C2=O)cc1 [Example 6, (5α,8α)-8-Hydroxy-8-(((R)-3-hydroxy-2-oxopyrrolidin-1-yl)methyl)-2-(4-isopropoxyphenyl)-2-azaspiro[4.5]decan-1-one] to CC(C)Oc1ccc(N2CC[C@]3(CC[C@@](O)(CN4CCOC4=O)CC3)C2=O)cc1 [Example 5, 3-(((5α,8α)-8-Hydroxy-2-(4-isopropoxyphenyl)-1-oxo-2-azaspiro[4.5]decan-8-yl)methyl)oxazolidin-2-one], the IC50 falls from 60 nM to 5.9 nM (10-fold).

Compared with CN1CCN(C[C@]2(O)CC[C@]3(CCN(c4ccc([C@@H](O)C(F)(F)F)cc4)C3=O)CC2)C1=O [Example 10, (5α,8α)-8-Hydroxy-8-(3-methyl-2-oxo-imidazolidin-1-ylmethyl)-2-[4-((R)-2,2,2-trifluoro-1-hydroxy-ethyl)-phenyl]-2-aza-spiro[4.5]decan-1-one], CC1(C)CCC(=O)N1C[C@]1(O)CC[C@]2(CCN(c3ccc([C@@H](O)C(F)(F)F)cc3)C2=O)CC1 [Example 9, (5α,8α)-8-(2,2-Dimethyl-5-oxo-pyrrolidin-1-ylmethyl)-8-hydroxy-2-[4-((R)-2,2,2-trifluoro-1-hydroxy-ethyl)-phenyl]-2-aza-spiro[4.5]decan-1-one] is 9.3-fold lower in IC50: 136 nM for the first, 14.6 nM for the second. The second is the more potent here.

Going from O=C1CCC2(CC2)N1C[C@]1(O)CC[C@]2(CCN(c3ccc([C@@H](O)C(F)(F)F)cc3)C2=O)CC1 [Example 17, (5α,8α)-8-Hydroxy-8-(5-oxo-4-aza-spiro[2.4]hept-4-ylmethyl)-2-[4-((R)-2,2,2-trifluoro-1-hydroxy-ethyl)-phenyl]-2-aza-spiro[4.5]decan-1-one] to C[C@@H](Oc1ccc(N2CC[C@]3(CC[C@@](O)(CN4C(=O)CCC45CC5)CC3)C2=O)cc1)C(F)(F)F [Example 11, (5α,8α)-8-hydroxy-8-((5-oxo-4-azaspiro[2.4]heptan-4-yl)methyl)-2-(4-((R)-1,1,1-trifluoropropan-2-yloxy)phenyl)-2-azaspiro[4.5]decan-1-one], the IC50 falls from 40 nM to 7.1 nM (5.6-fold).

Going from CC(C)Oc1ccc(N2CC[C@]3(CC[C@@](O)(CN4CCN(C)C4=O)CC3)C2=O)cc1 [Example 3, (5α,8α)-8-hydroxy-2-(4-isopropoxyphenyl)-8-((3-methyl-2-oxoimidazolidin-1-yl)methyl)-2-azaspiro[4.5]decan-1-one] to CC(C)Oc1ccc(N2CC[C@]3(CC[C@@](O)(CN4CCN(C)C4=O)CC3)C2=O)cn1 [Example 7, (5α,8α)-8-Hydroxy-2-(6-isopropoxy-pyridin-3-yl)-8-(3-methyl-2-oxo-imidazolidin-1-ylmethyl)-2-aza-spiro[4.5]decan-1-one], the IC50 rises from 23.9 nM to 138 nM (5.8-fold).

Compared with O=C1OCC2(CC2)N1C[C@]1(O)CC[C@]2(CCN(c3ccc(OCC(F)(F)F)cc3)C2=O)CC1 [Example 15, (5α,8α)-8-Hydroxy-8-(5-oxo-6-oxa-4-aza-spiro[2.4]hept-4-ylmethyl)-2-[4-(2,2,2-trifluoro-ethoxy)-phenyl]-2-aza-spiro[4.5]decan-1-one], O=C1CCC2(CC2)N1C[C@]1(O)CC[C@]2(CCN(c3ccc(OCC(F)(F)F)cc3)C2=O)CC1 [Example 13, (5α,8α)-8-Hydroxy-8-(5-oxo-4-aza-spiro[2.4]hept-4-ylmethyl)-2-[4-(2,2,2-trifluoro-ethoxy)-phenyl]-2-aza-spiro[4.5]decan-1-one] is 130-fold lower in IC50: 990 nM for the first, 7.5 nM for the second.

CC(C)Oc1ccc(N2CC[C@]3(CC[C@@](O)(CN4C(=O)CCC45CC5)CC3)C2=O)cc1 [Example 4, (5α,8α)-8-Hydroxy-2-(4-isopropoxy-phenyl)-8-(5-oxo-4-aza-spiro[2.4]hept-4-ylmethyl)-2-aza-spiro[4.5]decan-1-one] and CC(C)Oc1ccc(N2CC[C@]3(CC[C@@](O)(CN4C(=O)CCC4(C)C)CC3)C2=O)cc1 [Example 2, (5α,8α)-8-((2,2-dimethyl-5-oxopyrrolidin-1-yl)methyl)-8-hydroxy-2-(4-isopropoxyphenyl)-2-azaspiro[4.5]decan-1-one] are within 1.5-fold of each other in IC50: 11.4 nM for the first, 12.5 nM for the second.

Compared with C[C@H](Oc1ccc(N2CC[C@]3(CC[C@@](O)(CN4C(=O)CCC45CC5)CC3)C2=O)cn1)C(F)(F)F [Example 12, (5α,8α)-8-hydroxy-8-((5-oxo-4-azaspiro[2.4]heptan-4-yl)methyl)-2-(6-((S)-1,1,1-trifluoropropan-2-yloxy)pyridin-3-yl)-2-azaspiro[4.5]decan-1-one], CC(C)Oc1ccc(N2CC[C@]3(CC[C@@](O)(CN4CCNC4=O)CC3)C2=O)cn1 [Example 8, (5α,8α)-8-hydroxy-2-(6-isopropoxypyridin-3-yl)-8-((2-oxoimidazolidin-1-yl)methyl)-2-azaspiro[4.5]decan-1-one] is 31-fold higher in IC50: 9.7 nM for the first, 300 nM for the second.

Compared with O=C1OCCN1C[C@]1(O)CC[C@]2(CCN(c3ccc(OCC(F)(F)F)cc3)C2=O)CC1 [Example 16, (5α,8α)-8-Hydroxy-8-(2-oxo-oxazolidin-3-ylmethyl)-2-[4-(2,2,2-trifluoro-ethoxy)-phenyl]-2-aza-spiro[4.5]decan-1-one], CC1(C)CCC(=O)N1C[C@]1(O)CC[C@]2(CCN(c3ccc(C(F)(F)F)cc3)C2=O)CC1 [Example 1, (5α,8α)-8-((2,2-dimethyl-5-oxopyrrolidin-1-yl)methyl)-8-hydroxy-2-(4-(trifluoromethyl)phenyl)-2-azaspiro[4.5]decan-1-one] is 10-fold lower in IC50: 150 nM for the first, 14.9 nM for the second.
